Source: publication PMC11489250, “Optimized methods for measuring competitive binding of chemical substances to thyroid hormone distributor proteins transthyretin and thyroxine binding globulin” (Archives of Toxicology, 2024)
Like-named read-outs stand apart in the source and are kept apart here.

Key:
Human TTR [1] = molecular target: T1, Human TTR (Homo sapiens, UniProt P02766); conditions: FITC-T4 110 nM, human TTR 30 nM, 4 °C, 2 h; ref Hamers et al. [2020]; read-out: TTR literature Ki; cited from earlier work
T1 construct: Transthyretin (prealbumin, TTR) >95% from human plasma; purchased Sigma Aldrich (Zwijndrecht, The Netherlands); host or cells: human plasma

[2] = molecular target: T2, thyroxine-binding globulin (TBG) (Homo sapiens, UniProt P05543); assay: Competitive TBG-binding assay with FITC-T4 (fluorescence polarization readout); conditions: for inhibition of the FITC-T4 binding to TBG (in words) / Ki / IC50 / IC20: RT
T2 construct: purchased Bio-rad Laboratories, Inc. (Veenendaal, The Netherlands)
T2 sequence (P05543 21-415): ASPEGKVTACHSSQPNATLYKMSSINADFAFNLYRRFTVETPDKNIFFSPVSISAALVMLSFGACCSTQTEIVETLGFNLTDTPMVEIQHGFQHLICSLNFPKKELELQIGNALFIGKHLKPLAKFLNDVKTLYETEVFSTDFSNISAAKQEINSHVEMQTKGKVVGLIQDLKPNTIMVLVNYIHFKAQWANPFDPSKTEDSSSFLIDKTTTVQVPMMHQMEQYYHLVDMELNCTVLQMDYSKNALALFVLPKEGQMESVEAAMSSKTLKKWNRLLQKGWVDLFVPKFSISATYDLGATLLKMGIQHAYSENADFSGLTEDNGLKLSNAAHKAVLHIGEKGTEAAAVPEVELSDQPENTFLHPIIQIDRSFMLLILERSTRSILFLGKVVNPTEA
Experimental: Prepared plates were first shaken for 5 min and then incubated for 15 min at room temperature before being analysed by the microplate reader at FP mode (CLARIOstar Plus, BMG LABTECH).
Accordingly, dilution series of all compounds were prepared in DMSO. First, 24 µL Tris–HCl buffer was pipetted to the wells, followed by 1 µL of the compound stock solution. […] Solvent (DMSO) concentrations in all conditions were 1%. The plates were shaken for 5 min on a plate shaker, followed by an incubation for 15 min at room temperature.
The adjusted polarization was set to a reference value of 35 mP. The adjustment gain values ranged from 1900 to 2200. The plate layout of TBG-binding assay is provided in Supplementary Information file (Section 4).
For the competitive TBG-binding experiments, concentration–response curves were fitted:2 r=rmin+rmax-rmin/1+IC50/X^HillSlope with rmin and rmax being the minimum and maximum anisotropy values, respectively. X is the concentration of added competitor. Equations that were used for the calculation of the ICX and Ki values in the TTR-binding assays (Supplementary Information, Section 3) were also used to determine the ICX and Ki values in TBG-binding assays without any changes, respectively. The single Kd, IC20, IC50 and Ki were determined based on replicates (n) in each experiment, and then the average and confidence intervals were determined based on the Kd, IC20, IC50 and Ki values from sperate experiments (N).
Alternatively, another approach to determine ICX, Kd and Ki values based on a theoretical model of ligand–protein binding biochemistry was taken as described in detail in the Supplementary Information file (Section 5). For this approach, R was used to fit the model to the data. The results obtained from the two approaches were compared in Section 3.4.
S5.2 Ki and IC50 estimation

Human TTR [3] = molecular target: T1, Human TTR; assay: Optimized competitive TTR-binding assay with FITC-T4 (fluorescence intensity readout); conditions: for T4EQ concentration (TTR binding): T4EQi = highest human blood concentration x T4-REPi; for Contribution to T4EQ concentration (TTR binding): mixture of highest human blood concentrations of five model compounds; for IC20: read-out: TTR IC20
Experimental: All TTR-binding experiments were performed in black 96-well polystyrene nonbinding plates. Experimental wells and background wells were prepared in triplicate per plate. […] Fluorescence intensity (FI) was measured at λex = 485 ± 20 nm and λem = 528 ± 20 nm (CLARIOstar Plus microplate reader, BMG LABTECH).
To test the effect of the change in temperature and incubation time, a saturation experiment (N = 3, n = 3) was performed in Tris–HCl buffer (0.1 M Tris (Thermo Scientific, Rockford, USA), 0.1 M NaCl (Merck KGaA, Darmstadt, Germany), 1 mM EDTA (VWR International, B.V. Amsterdam, The Netherlands); pH 8.0). […] Two 96-well plates were prepared at the same time. After shaking for 5 min on a plate shaker, one prepared plate was incubated on ice (at 4 °C) and another plate was incubated at room temperature (22 °C). For both plates the fluorescence was measured at different time points: 5 min, 15 min, 60 min and 120 min.
First, 48 µL Tris–HCl buffer (pH 8.0) was pipetted to the wells, followed by 2 µL of the compound (in DMSO). […] Final solvent (DMSO) concentrations in all conditions amounted to 1%. All plates were shaken for 5 min on a plate shaker, followed by an incubation for 15 min at room temperature. The standard operation procedure (SOP) is provided in Supplementary Information file (Section 3).
Calculations of the ICX, Kd and Ki values of TTR-binding assays are described in the Supplementary Information file (Section 3).
3.7.5 The competitive TTR binding screening assay
3.7.8 Processing data to determine IC50 and calculate Ki value

[4] = molecular target: T2, thyroxine-binding globulin (TBG); assay: Competitive TBG-binding assay with FITC-T4 (fluorescence polarization readout); conditions: 37 °C, 15 min, preliminary temperature experiment (N = 2)
TBG [5] = molecular target: TBG; set-up: method as in Qi et al. [2011]; conditions: ref Qi et al. [2011]; read-out: TBG literature Ki; cited from earlier work
TBG [6] = molecular target: TBG; set-up: method as in Cao et al. [2010]; conditions: ref Cao et al. [2010]; read-out: TBG literature Ki; cited from earlier work
TBG [7] = molecular target: TBG; set-up: method as in Ren et al. [2016]; conditions: ref Ren et al. [2016], cited from earlier work
Recombinant TTR = molecular target: Recombinant TTR; set-up: method as in Marchesini et al. [2006]; conditions: T4 100 nM, recombinant TTR 18.2 nM, 25 °C, 10 min, ref Marchesini et al. [2006], cited from earlier work
TBG [8] = test system: TBG; set-up: method as in Marchesini et al. [2008]; conditions: T4-coated chips and TBG; ref Marchesini et al. [2008]; read-out: TBG IC50 (SPR biosensor); cited from earlier work
TBG [9] = molecular target: TBG; set-up: method as in Ren and Guo [2012]; conditions: ref Ren and Guo [2012]; read-out: TBG literature Ki; cited from earlier work
TTR = conditions: ref Ren et al. [2020]; cited from earlier work
TBG [10] = conditions: highest tested concentration 100 µM with 100 nM TBG and 50 nM FITC-T4; ref Ren et al. [2020]; cited from earlier work
[11] = 5 nM FITC-T4, 10 nM TBG, 15 min, derived from IC20, descriptive model (Graphpad), average [95% CI], read-out: TBG Ki
[12] = 5 nM FITC-T4, 10 nM TBG, 15 min, descriptive model (Graphpad), average [95% CI]
[13] = 5 nM FITC-T4, 10 nM TBG, 15 min, descriptive model (Graphpad), average [95% CI], read-out: TBG IC20
[14] = 5 nM FITC-T4, 10 nM TBG, theoretical model in R, average [95% CI], read-out: TBG IC20, theoretical model
[15] = 5 nM FITC-T4, 10 nM TBG, theoretical model in R, average [95% CI], read-out: TBG Ki values, theoretical model
[16] = 110 nM FITC-T4, 30 nM TTR, RT, 15 min, average [95% CI]

O=S(=O)(O)C(F)(F)C(F)(F)C(F)(F)C(F)(F)C(F)(F)C(F)(F)C(F)(F)C(F)(F)F [PFOS, Perfluorooctanesulfonic acid]
Ki (Human TTR [1]): 0.16 µM | inhibition of the FITC-T4 binding to TBG (in words) ([2]; 5 nM FITC-T4, 10 nM TBG): No (or only limited) inhibition | T4EQ concentration (TTR binding) (Human TTR [3]): 9.73 nM | IC50 (Human TTR [3]; TTR IC50, 110 nM FITC-T4, 30 nM TTR, RT, 15 min, average [95% CI]): 0.271 µM | IC50 (Human TTR [3]; TTR IC50 [95% CI], 55 nM FITC-T4, 30 nM TTR, RT (5 min)): 0.191 µM | IC50 (Human TTR [3]; TTR IC50 [95% CI], 55 nM FITC-T4, 30 nM TTR, RT (15 min)): 0.189 µM | IC50 (Human TTR [3]; TTR IC50 [95% CI], 55 nM FITC-T4, 30 nM TTR, RT (60 min)): 0.196 µM | IC50 (Human TTR [3]; TTR IC50 [95% CI], 55 nM FITC-T4, 30 nM TTR, RT (120 min)): 0.194 µM | IC50 (Human TTR [3]; TTR IC50 [95% CI], 55 nM FITC-T4, 30 nM TTR, on ice (120 min)): 0.179 µM | Ki (Human TTR [3]; TTR Ki [95% CI], 55 nM FITC-T4, 30 nM TTR, RT (5 min)): 0.143 µM | Ki (Human TTR [3]; TTR Ki [95% CI], 55 nM FITC-T4, 30 nM TTR, RT (15 min)): 0.133 µM | Ki (Human TTR [3]; TTR Ki [95% CI], 55 nM FITC-T4, 30 nM TTR, RT (60 min)): 0.127 µM | Ki (Human TTR [3]; TTR Ki [95% CI], 55 nM FITC-T4, 30 nM TTR, RT (120 min)): 0.133 µM | Ki (Human TTR [3]; TTR Ki [95% CI], 55 nM FITC-T4, 30 nM TTR, on ice (120 min)): 0.171 µM | Ki (Human TTR [3]; TTR Ki, 110 nM FITC-T4, 30 nM TTR, RT, 15 min, derived from IC20, average [95% CI]): 0.243 µM | Contribution to T4EQ concentration (TTR binding) (Human TTR [3]): 50.9% | IC20 (Human TTR [3]): 0.118 µM

N[C@@H](Cc1cc(I)c(Oc2cc(I)c(O)c(I)c2)c(I)c1)C(=O)O [T4, 3,3′,5,5′-tetraiodothyronine]
Ki [4]: 0.0026 µM | Ki (TBG [5]): 0.0022 µM | Ki (TBG [6]): 0.0006 µM | Ki (TBG [7]; N.D means not detected, read-out: TBG literature Ki): 0.007 µM | Ki [2, 11]: 0.0025 µM | IC50 [2, 12]: 0.0149 µM | IC20 [2, 13]: 0.0092 µM | IC20 [2, 14]: 0.0059 µM | Ki [2, 15]: 0.0008 µM | Ki ([2]; 15 min, preliminary temperature experiment (N = 2), read-out: TBG Ki): 0.0029 µM | IC20 (Human TTR [3]; [16]): 0.025 µM | Kd (Recombinant TTR; read-out: Determined Kd value of ligand with TTR): 0.0092 ± 0.0012 µM | Ki (Recombinant TTR; read-out: TTR literature Ki): 0.0137 ± 0.0013 µM | IC50 (TBG [8]): 0.0172 µM | Ki (TBG [9]): 0.017 µM

OC[C@@H](O)[C@@H](O)[C@H](O)[C@H](O)CO [D-mannitol]
inhibition of the FITC-T4 binding to TBG (in words) ([2]; 5 nM FITC-T4, 10 nM TBG): no inhibition | displacement of FITC-T4 from TTR (in words) (Human TTR [3]; 110 nM FITC-T4, 30 nM TTR, RT): Except for D-mannitol, all compounds displaced FITC-T4 from TTR

Oc1cc(Cl)ccc1Oc1ccc(Cl)cc1Cl [Triclosan, triclosan]
IC20 [2, 13]: 0.284 µM | IC20 [2, 14]: 0.293 µM

CC(C)(c1cc(Br)c(O)c(Br)c1)c1cc(Br)c(O)c(Br)c1 [TBBPA]
binding to TTR (in words) (TTR): binding of TBBPA to TTR | binding to TBG (in words) (TBG [10]): not to TBG | Ki (Human TTR [1]): 0.017 µM | Ki [2, 11]: 3.76 µM | IC50 [2, 12]: 68.1 µM | IC20 [2, 13]: 7.3 µM | IC20 [2, 14]: 6.42 µM | Ki [2, 15]: 3.31 µM | T4EQ concentration (TBG binding) ([2]; T4EQi = highest human blood concentration x T4-REPi): 2 pM | Contribution to T4EQ concentration (TBG binding) ([2]; mixture of highest human blood concentrations of TBBPA, triclosan and BPA): 0.1% | IC20 (Human TTR [3]; [16]): 0.012 µM | IC50 (Human TTR [3]; 110 nM FITC-T4, 30 nM TTR, RT, 15 min, average [95% CI], read-out: TTR IC50): 0.022 µM | Ki (Human TTR [3]; 110 nM FITC-T4, 30 nM TTR, RT, 15 min, derived from IC20, average [95% CI], read-out: TTR Ki): 0.012 µM | T4EQ concentration (TTR binding) (Human TTR [3]): 3.73 nM | Contribution to T4EQ concentration (TTR binding) (Human TTR [3]): 19.5%

O=C(O)C(F)(F)C(F)(F)C(F)(F)C(F)(F)C(F)(F)C(F)(F)C(F)(F)C(F)(F)C(F)(F)C(F)(F)C(F)(F)C(F)(F)C(F)(F)F [PFTdA, perfluorotetradecanoic acid]
Ki (TBG [7]; read-out: TBG Ki): 26.6 µM

O=C(O)C(F)(F)C(F)(F)C(F)(F)C(F)(F)C(F)(F)C(F)(F)C(F)(F)C(F)(F)C(F)(F)C(F)(F)C(F)(F)C(F)(F)F [PFTA, perfluorotridecanoic acid]
Ki (TBG [7]; read-out: TBG Ki): 23 µM
